Source: paper PMC3342997 (HIV Medicine, 2011)
≈ marks a conversion by molar mass, not a printed value. Where “and” joins values, the source holds several entries; their conditions need not be identical. Equal values may be shown once. Read-outs that look alike come from different tables or passages of the source.

What was measured:
HIV-1 = details: combination antiretroviral regimen
clinical [1] = details: female, human, 200 mg; for Vd/F / half-life: in vivo; for AUC: 200 mg once daily, steady state, AUC0-24, noncompartmental
wild-type HIV-1 = details: mean in vitro, wild-type HIV-1 viral replication; ref not given; cited from earlier work
clinical [2] = details: female, human, in vivo, 200 mg
[3] = cited from earlier work
[4] = female, human, in vivo
[5] = for Women with detectable emtricitabine concentrations at pre-dose sampling: limit of detection 0.0118 mg/L
[6] = in vivo; cited from earlier work
[7] = postpartum (n = 22), geometric least-squares mean (90% CI)
[8] = third trimester (n = 26), geometric least-squares mean (90% CI)

Nc1nc(=O)n([C@@H]2CS[C@H](CO)O2)cc1F [emtricitabine]
Women with viral load <400 HIV-1 RNA copies/mL (HIV-1; postpartum): 15 of 19 and 15 | Women with viral load <400 HIV-1 RNA copies/mL (HIV-1; third trimester): 24 of 26 | Vd/F (clinical [1]; [7]): 301 L | Vd/F (clinical [1]; [8]): 334 L | half-life (clinical [1]; t1/2, postpartum (n = 22), geometric least-squares mean (90% CI)): 10.1 h | half-life (clinical [1]; t1/2, third trimester (n = 26), geometric least-squares mean (90% CI)): 9.3 h | Cmax (clinical [1]; plasma, oral): 1400 ng/mL | tmax (clinical [1]; plasma, oral): 2 h | AUC (clinical [1]; plasma, oral, postpartum (n = 22), geometric least-squares mean (90% CI)): 9700 ng·h/mL | AUC (clinical [1]; plasma, oral, third trimester (n = 26), geometric least-squares mean (90% CI)): 8000 ng·h/mL | concentration at 24 h (clinical [1]; plasma, oral, C24 (24 hour post dose concentration), postpartum (n = 22), geometric least-squares mean (90% CI)): 85 ng/mL | concentration at 24 h (clinical [1]; plasma, oral, C24 (24 hour post dose concentration), third trimester (n = 26), geometric least-squares mean (90% CI)): 58 ng/mL | concentration at 24 h (clinical [1]; plasma, oral, Lowest C24, postpartum): 70 ng/mL | Subjects with grade 3 adverse events of elevated bilirubin (human, in vivo): three subjects | Tolerability (human, in vivo): well tolerated | Congenital anomalies in infants (lachrymal duct stenosis, grade 3 vesicoureteral reflux, deemed not related to the antiretroviral regimen): two infants | IC50 (drug concentration that suppresses viral replication by half) (wild-type HIV-1): 0.004 µg/mL (≈ 0.0162 µM) | IC90 (wild-type HIV-1): 0.051 µg/mL (≈ 0.206 µM) | Kp (clinical [2]): 1.2 | AUC ([3]; in vivo, 200 mg): 10000 ng·h/mL | Cmax ([3]; in vivo): 1800 ± 700 ng/mL | Minimum adult concentration ([3]; in vivo): 0.077 mg/L | Protein binding ([3]; in vivo): low protein binding | CL/F ([3]; nonpregnant adults, 200 mg once daily): 18.1 L/h | Maternal plasma concentration at delivery [4]: 0.15 mg/L | Women with detectable emtricitabine concentrations at pre-dose sampling ([5]; antepartum): All 26 women | Subjects achieving target AUC ≥7.0 mg h/L ([5]; during pregnancy, 15 of 26 subjects, 80% CI 45–70%): 58% | C24 (24 hour post dose concentration) [5, 7]: 0.085 mg/L | Cmax [5, 7]: 1.4 (1.3–1.7) mg/L | C24 (24 hour post dose concentration) ([5]; postpartum (n = 22), geometric least-squares mean (90% CI), listed as Emtricitabine): 0.085 (0.07–0.1) mg/L | tmax ([5]; postpartum (n = 22), median (range)): 2.0 (min–max: 1–6) hours | Subjects achieving target AUC ≥7.0 mg h/L ([5]; postpartum, 21 of 22 subjects, 80% CI 89–100%): 95% | Women with detectable emtricitabine concentrations at pre-dose sampling ([5]; postpartum): 18 of 22 | Magnitude of the AUC decrease during pregnancy ([5]; pregnancy compared with postpartum): less than 20% | C24 (24 hour post dose concentration) [5, 8]: 0.058 mg/L

Cc1ccnc2c1NC(=O)c1cccnc1N2C1CC1 [nevirapine]
Reduction of exposure during pregnancy [6]: 10–20%
